Columns and labels:
[1] = acetic acid Writhing Test (analgesia), mouse; type: in vivo; details: p.a. (so in the source)
Description: Acetic acid Writhing Test Koster et al., Fed. Proc., Volume 18, 412 (1959).

[2] = Randall-Selitto Test (analgesia), rat; type: in vivo; details: for ED50: po
Description: Randall-Selitto Test G. Engelhardt, Arzneim. Forsch. 34, 992 et seq. (1984); Maruyama et al., Arzneim. Forsch. 28, 11 (1978).

Toxicity, LD50 rat = details: in vivo, po
Description: (§1) Miller, Tainter, Proc. Soc. Exper. Biol. Med. 57, 261 (1944).

Toxicity, LD50 mouse = details: in vivo, po
Description: as §1

[3] = general absence of side-effects (gastrointestinal disorders, gastric ulcers); type: in vivo; details: compared to known substances, e.g. non-steroidal anti-inflammatory agents with analgesic components

`Nc1ccc(Cc2ccc(F)cc2)c(N)n1` [D 17033, 2,6-diamino-3-(4-fluoro)benzylpyridine] showed an ED50 [1] of 1.4 mg/kg, an ED50 [2] of 0.2 mg/kg and an LD50 (Toxicity, LD50 rat) of 1100 mg/kg. The LD50 (Toxicity, LD50 mouse) was 266 mg/kg and the “side-effects such as gastrointestinal disorders and gastric ulcers” value [3] was “general absence of side-effects”.
`Nc1ccc(Cc2ccccc2F)c(N)n1` [D 17746, 2,6-diamino-3-(2-fluoro)benzylpyridine] showed an LD50 (Toxicity, LD50 mouse) of 276 mg/kg.
With `Nc1ccc(Cc2c(F)cccc2Cl)c(N)n1` [D 17748, 2,6-diamino-3-(2-fluoro-6-chloro)benzylpyridine] the “acetic acid Writhing Test Mouse, % effect at stated dose” value ([1]; at 0.5 mg/kg (printed 0.5/34%)) was 34%, the “Randall-Selitto Test Rat, % effect at stated dose” value ([2]; p.o., at 0.5 mg/kg (printed 0.5/57%)) was 57% and the LD50 (Toxicity, LD50 mouse) was 285 mg/kg.
With `CCOC(=O)Nc1ccc(NCc2ccc(F)cc2)nc1N` [Flupirtin, reference compound] the ED50 [1] was 44.5 mg/kg, the ED50 [2] was 38.8 mg/kg and the LD50 (Toxicity, LD50 rat) was 1660 mg/kg. The LD50 (Toxicity, LD50 mouse) was 633 mg/kg.
